Measured values published in BindingDB's records for patent US11111252 (Duquesne University of The Holy Spirit, 2021).

Target: T1, Dihydrofolate reductase (Pneumocystis jirovecii, UniProt Q9UUP5)
T1 sequence (Q9UUP5 whole entry): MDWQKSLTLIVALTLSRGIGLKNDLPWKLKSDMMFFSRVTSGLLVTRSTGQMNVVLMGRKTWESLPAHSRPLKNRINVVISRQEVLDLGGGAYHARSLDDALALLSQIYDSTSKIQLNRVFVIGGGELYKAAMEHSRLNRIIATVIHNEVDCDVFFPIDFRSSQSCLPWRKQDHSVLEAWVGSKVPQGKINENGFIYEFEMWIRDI
Test: Kinase Inhibition Assay

`COc1ccc(Sc2sc3nc(N)nc(N)c3c2C)cc1OC` [US11111252, Compound 1] showed an IC50 of 260 nM.
With `COc1ccc(Sc2c(C)c3c(N)nc(N)nc3n2C)cc1OC` [US11111252, Compound 9] the IC50 was 234 nM.
